# Assay results: ChEMBL document CHEMBL3585280, “2-Aminopyridines with a Truncated Side Chain To Improve Human Neuronal Nitric Oxide Synthase Inhibitory Potency and Selectivity” (J Med Chem, 2015)
# How the values were obtained:
# Format in all cases: ADME, organism-based
# [1] = Cmax in BALB/c mouse brain at 2 mg/kg, iv; parameters: dose 2 mg/kg, route intravenous
# [2] = tested on: Brain; experiment: AUClast in BALB/c mouse brain at 10 mg/kg, po; settings: in vivo
# [3] = tested on: Brain; experiment: AUClast in BALB/c mouse brain at 2 mg/kg, iv; settings: in vivo
# [4] = Cmax in BALB/c mouse plasma at 2 mg/kg, iv; parameters: dose 2 mg/kg, route intravenous
smiles,measurement,setting,value
CNCCN(C)c1cc(C#N)cc(CCc2cc(C)cc(N)n2)c1,Cmax,[1],100 ng/g
same,AUClast,[2],673.67 ng·h/g
same,AUClast,[3],789.07 ng·h/g
same,Cmax,[4],0.472 µg/mL
